We go through 15 molecules from patent publication US20250304549A1, “HYDROXYAMIDE DERIVATIVE AND USE THEREOF” (SICHUAN HUIYU PHARMACEUTICAL CO., LTD., priority 2022, published 2025).

Counter-ions that a name gives are not always drawn.

The target in one assay is LSD1 (Homo sapiens (Human), UniProt O60341). Nature of the assay: In vitro enzyme inhibition assay - LSD1 (HTRF). It is filed as biochemical.
A further assay concerns NCI-H69 cells. As to the kind of experiment: In vitro cell inhibition assay - NCI-H69 cell proliferation (CellTiter-Glo). Format: cell-based. The note with it: Homo sapiens, NCI-H69, H69 small cell lung cancer cell proliferation. The procedure, abridged:
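Proliferation was assessed after a 7-day compound treatment of cells seeded at 1×10^3 per well. IC50 values came from fitting inhibition rates derived from CellTiter-Glo luminescence.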
A general note: In ATP-based viability assays light output follows the ATP content of the culture.

A further assay concerns NCI-H1417 cells. As to the kind of experiment: In vitro cell inhibition assay - H1417 cell proliferation (CellTiter-Glo). Conditions: Homo sapiens, NCI-H1417, H1417 small cell lung cancer cell proliferation. Format: cell-based. The essentials: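 Cells exposed to 8 compound concentrations (5-fold dilutions) in BEGM with 10% FBS for 7 days at 37° C., 5% CO2. Viable cells measured by CellTiter-Glo luminescence; inhibition versus no-inhibitor and no-cell controls, IC50 fitted.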

The next assay concerns NCI-H526 cells. As to the kind of experiment: In vitro cell inhibition assay - NCI-H526 cell proliferation (CellTiter-Glo). Format: cell-based. Conditions: Homo sapiens, NCI-H526, 120 h, H526 small cell lung cancer cell proliferation, 5 days. Here is the method: 6. In Vitro Cell Inhibition Assay—NCI-H526 Cell Proliferation
The inhibitory effect of the compounds on cell proliferation was assessed by detecting the number of viable cells using CellTiter-Glo® reagent. NCI-H526 cells in the logarithmic growth phase were collected and inoculated into transparent bottom 96-well plates at a density 1×10^3 cells per well with 100 μL of medium, and incubated at 37° C., 5% CO2 overnight. The compounds were sequentially diluted in a 5-fold concentration gradient with DMSO to obtain 8 different concentrations. These were then diluted with RPMI-640 (containing 10% FBS) cell culture medium to obtain the compound working solution (2×), which was added to the cell supernatant at 100 μL per well. The incubation continued for 5 days at 37° C., 5% CO2. The plate was then removed and equilibrated at room temperature (25° C.) along with the CellTiter-Glo® mixing reagent for 10-30 minutes; 80 μL of the culture medium was carefully aspirated from each well, and 80 μL of CellTiter-Glo® reagent was added. The cells were thoroughly mixed with the CellTiter-Glo® mixing reagent using a microplate shaker for 2 min. and then incubated at room temperature for 10 min. The 96-well plate was subsequently placed on a multifunctional microplate reader to record the Luminescence values (RLU).
The inhibition rate was calculated using the following formula: […]
Note: ‘Negative’ refers to the group without inhibitors; ‘Blank’ refers to the group without cells.
The IC50 value was determined by fitting the inhibition rate by GraphPad Prism software.

Another assay deals with pan-HDAC. Nature of the assay: In vitro enzyme inhibition assay - HDAC (HDAC-Glo I/II), pan-HDAC. Format: biochemical. The essentials: (§1)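 The compound, serially diluted 5-fold in DMSO across 8 concentrations starting from a 1 mM stock, was made up as 4× working solutions in HDAC buffer. It was then tested in the HDAC-Glo I/II system, and luminescence was recorded. IC50 values came from variable-slope four-parameter curves of inhibition rate.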

For the next assay, the target named is HDAC8 (Homo sapiens (Human), UniProt Q9BY41). As to the kind of experiment: In vitro enzyme inhibition assay - HDAC (HDAC-Glo I/II), HDAC8. Format: biochemical. Conditions: read-out: HDAC IC50 (nM) HDAC 8. The procedure, abridged: as §1
HDAC8, sequence (Q9BY41 whole entry): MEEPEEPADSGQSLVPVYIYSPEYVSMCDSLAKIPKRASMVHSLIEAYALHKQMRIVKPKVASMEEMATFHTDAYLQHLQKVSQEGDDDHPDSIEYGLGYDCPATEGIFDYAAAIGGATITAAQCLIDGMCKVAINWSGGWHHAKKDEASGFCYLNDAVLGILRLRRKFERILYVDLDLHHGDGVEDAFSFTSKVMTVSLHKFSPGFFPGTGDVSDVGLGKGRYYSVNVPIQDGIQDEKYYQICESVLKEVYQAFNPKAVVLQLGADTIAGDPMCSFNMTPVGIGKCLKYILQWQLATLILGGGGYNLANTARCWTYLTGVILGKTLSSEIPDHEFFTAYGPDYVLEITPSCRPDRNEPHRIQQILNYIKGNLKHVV

Turning to `COc1ccc(-c2cnc(N3CCC(NCc4ccc(CCC(=O)NO)cc4)CC3)c(C#N)c2-c2ccc(C#N)c(F)c2)cc1O` [Example 43, 3-(4-((1-(3-Cyano-4-(4-cyano-3-fluorophenyl)-5-(3-hydroxy-4-methoxyphenyl)pyridin-2-yl)piperidin-4-yl)amino)methyl)phenyl)-N-hydroxypropanamide formate], the IC50 (usually the concentration that inhibits the measured activity by half) against LSD1 is 0.62 nM; in the assay with NCI-H69 cells it was 38.5 nM; in the assay with NCI-H1417 cells it was 4.96 nM; in the assay on NCI-H526 cells it was 35.3 nM.
Regarding `COc1ccc(-c2cnc(N3CCN(CCc4ccc(/C=C/C(=O)NO)cc4)CC3)c(C#N)c2-c2ccc(C#N)c(F)c2)cc1O` [Example 49, (E)-3-(4-(2-(4-(3-Cyano-4-(4-cyano-3-fluorophenyl)-5-(3-hydroxy-4-methoxyphenyl)pyridin-2-yl)piperazin-1-yl)ethyl)phenyl)-N-hydroxyacrylamide hydrochloride], the figures for the IC50 in the assay on NCI-H69 cells, in the assay on NCI-H1417 cells and in the assay with NCI-H526 cells were 232 nM, 80.1 nM and 333 nM, respectively.
As for `COc1ccc(-c2cnc(N3CCC(NCc4ccc(/C=C/C(=O)NO)cc4F)CC3)c(C#N)c2-c2ccc(C#N)c(F)c2)cc1O` [Example 154, (E)-3-(4-(((1-(3-Cyano-4-(4-cyano-3-fluorophenyl)-5-(3-hydroxy-4-methoxyphenyl)pyridin-2-yl)piperidin-4-yl)amino)methyl)-3-fluorophenyl)-N-hydroxyacrylamide hydrochloride], the IC50 is 0.44 nM on LSD1; 4.3 nM on pan-HDAC; 16.5 nM with NCI-H69 cells; 309 nM at HDAC8; 1.41 nM in the assay on NCI-H1417 cells; 21.7 nM in the assay with NCI-H526 cells.
In the case of `CC(C)(O)COc1ccc(-c2cnc(N3CCC(NCc4ccc(/C=C/C(=O)NO)nc4)CC3)c(CC#N)c2-c2ccc(C#N)c(F)c2)cc1O` [Example 221, (E)-3-(5-(((1-(4-(4-Cyano-3-fluorophenyl)-3-(cyanomethyl)-5-(3-hydroxy-4-(2-hydroxy-2-methylpropoxy)phenyl)pyridin-2-yl)piperidin-4-yl)amino)methyl)pyridin-2-yl)-N-hydroxyacrylamide formate], the IC50 stood at 17.1 nM against LSD1; 2.2 nM against pan-HDAC; 19.3 nM in the assay with NCI-H69 cells; 16.8 nM in the assay with NCI-H1417 cells; 29 nM in the assay on NCI-H526 cells.
The corresponding values for `CC(C)(O)COc1ccc(-c2cnc(N3CCC(NC(C)(C)c4ccc(/C=C/C(=O)NO)cc4)CC3)c(C#N)c2-c2ccc(C#N)c(F)c2)cc1O` [Example 223, (E)-3-(4-(2-((1-(3-Cyano-4-(4-cyano-3-fluorophenyl)-5-(3-hydroxy-4-(2-hydroxy-2-methylpropoxy)phenyl)pyridin-2-yl)piperidin-4-yl)amino)propan-2-yl)phenyl)-N-hydroxyacrylamide hydrochloride] are 1.01 nM, 4.37 nM, 4.56 nM, 3.23 nM and 16.8 nM.
The corresponding values for `COc1ccc(-c2cnc(N3CCC(NCc4ccc(/C=C/C(=O)NO)cc4)CC3)c(C#N)c2-c2cnc(C#N)c(F)c2)cc1O` [Example 249, (E)-3-(4-(((1-(3′,6-Dicyano-5-fluoro-5′-(3-hydroxy-4-methoxyphenyl)-[3,4′-bipyridin]-2′-yl)piperidin-4-yl)amino)methyl)phenyl)-N-hydroxyacrylamide formate] are 1.1 nM, 0.86 nM, 2.74 nM, 1.26 nM and 11.7 nM.
The corresponding values for `COc1cc(F)c(-c2cnc(N3CCC(NCc4ccc(/C=C/C(=O)NO)cc4)CC3)c(C#N)c2-c2ccc(C#N)nc2)cc1O` [Example 255, (E)-3-(4-(((1-(3′,6-Dicyano-5′-(2-fluoro-5-hydroxy-4-methoxyphenyl)-[3,4′-bipyridin]-2′-yl)piperidin-4-yl)amino)methyl)phenyl)-N-hydroxyacrylamide formate] are 1.54 nM, 0.68 nM, 7.82 nM, 3.39 nM and 11 nM.
As for `COc1ccc(-c2cnc(N3CCC(NCc4ccc(/C=C/C(=O)NO)c(F)c4)CC3)c(C#N)c2-c2ccc(C#N)nc2)cc1O` [Example 258, (E)-3-(4-(((1-(3′,6-Dicyano-5′-(3-hydroxy-4-methoxyphenyl)-[3,4′-bipyridin]-2′-yl)piperidin-4-yl)amino)methyl)-2-fluorophenyl)-N-hydroxyacrylamide formate], the IC50 on LSD1 worked out at 1.41 nM; at pan-HDAC it was 0.3 nM; with NCI-H69 cells, 1.81 nM; in the assay on NCI-H1417 cells it was 1.05 nM; in the assay on NCI-H526 cells it was 2.09 nM.
The corresponding values for `COc1ccc(-c2cnc(N3CCC(NCc4ccc(/C=C(\F)C(=O)NO)cc4)CC3)c(C#N)c2-c2ccc(C#N)nc2)cc1O` [Example 260, (Z)-3-(4-(((1-(3′,6-Dicyano-5′-(3-hydroxy-4-methoxyphenyl)-[3,4′-bipyridin]-2′-yl)piperidin-4-yl)amino)methyl)phenyl)-2-fluoro-N-hydroxyacrylamide dformate] are 2.37 nM, 0.77 nM, 8.18 nM, 3.02 nM and 11.5 nM.
The corresponding values for `COc1ccc(-c2cnc(N3CCC(NCc4ccc(/C=C/C(=O)NO)cc4)CC3)c(OC)c2-c2ccc(C#N)nc2)cc1O` [Example 263, (E)-3-(4-(((1-(6-Cyano-5′-(3-hydroxy-4-methoxyphenyl)-3′-methoxy-[3,4′-bipyridin]-2′-yl)piperidin-4-yl)amino)methyl)phenyl)-N-hydroxyacrylamide formate] are 16.8 nM, 0.34 nM, 1.14 nM, 1.64 nM and 2.22 nM.
For the molecule `COc1ccc(-c2cnc(N3CCC(NCc4ccc(/C=C/C(=O)NO)cc4F)CC3)c(OC)c2-c2ccc(C#N)nc2)cc1O` [Example 264, (E)-3-(4-(((1-(6-Cyano-5′-(3-hydroxy-4-methoxyphenyl)-3′-methoxy-[3,4′-bipyridin]-2′-yl)piperidin-4-yl)amino)methyl)-3-fluorophenyl)-N-hydroxyacrylamide formate], the IC50 at LSD1 is 25.4 nM; against pan-HDAC it was 0.89 nM; with NCI-H69 cells, 1.84 nM; in the assay with NCI-H1417 cells it was 2.2 nM; with NCI-H526 cells it was 5.12 nM.
The corresponding values for `COc1cc(F)c(-c2cnc(N3CCC(NCc4ccc(/C=C/C(=O)NO)cc4)CC3)c(OC)c2-c2ccc(C#N)nc2)cc1O` [Example 265, (E)-3-(4-(((1-(6-Cyano-5′-(2-fluoro-5-hydroxy-4-methoxyphenyl)-3′-methoxy-[3,4′-bipyridin]-2′-yl)piperidin-4-yl)amino)methyl)phenyl)-N-hydroxyacrylamide formate] are 10.2 nM, 0.45 nM, 7.2 nM, 5.09 nM and 5.85 nM.
The corresponding values for `COc1ccc(-c2cnc(N3CCC(NCc4ccc(/C=C/C(=O)NO)nc4)CC3)c(OC)c2-c2ccc(C#N)nc2)cc1O` [Example 266, (E)-3-(5-(((1-(6-Cyano-5′-(3-hydroxy-4-methoxyphenyl)-3′-methoxy-[3,4′-bipyridin]-2′-yl)piperidin-4-yl)amino)methyl)pyridin-2-yl)-N-hydroxyacrylamide formate] are 24.2 nM, 0.16 nM, 2.02 nM, 2.09 nM and 2.35 nM.
The corresponding values for `COc1ccc(-c2cnc(N3CCC(NCc4ccc(/C=C/C(=O)NO)cc4)CC3)c(F)c2-c2ccc(C#N)nc2)cc1O` [Example 268, (E)-3-(4-(((1-(6-Cyano-3′-fluoro-5′-(3-hydroxy-4-methoxyphenyl)-[3,4′-bipyridin]-2′-yl)piperidin-4-yl)amino)methyl)phenyl)-N-hydroxyacrylamide formate] are 147 nM, 0.27 nM, 1.58 nM, 2.03 nM and 2.22 nM.
In turn, `O=C(CCCCCCC(=O)Nc1ccccc1)NO` [SAHA, Vorinostat, reference compound] came in with an IC50 with NCI-H526 cells of 397 nM.
